Article PMC6270012, “Inhibitory Evaluation of Sulfonamide Chalcones on β-Secretase and Acylcholinesterase” (Molecules, 2012)
Entries after “also recorded” stand apart in the source; their conditions may differ. Read-outs that look alike come from different tables or passages of the source.

Legend:
Assay type in all cases: biochemical
[1] = biological target: T1, BACE1 (Homo sapiens, UniProt P56817); assay: BACE1 FRET peptide cleavage assay; details: for Inhibition type: Lineweaver-Burk and Dixon plots
T1 construct: purchased RD System, Inc. (WI, USA)
T1 sequence (P56817 46-501): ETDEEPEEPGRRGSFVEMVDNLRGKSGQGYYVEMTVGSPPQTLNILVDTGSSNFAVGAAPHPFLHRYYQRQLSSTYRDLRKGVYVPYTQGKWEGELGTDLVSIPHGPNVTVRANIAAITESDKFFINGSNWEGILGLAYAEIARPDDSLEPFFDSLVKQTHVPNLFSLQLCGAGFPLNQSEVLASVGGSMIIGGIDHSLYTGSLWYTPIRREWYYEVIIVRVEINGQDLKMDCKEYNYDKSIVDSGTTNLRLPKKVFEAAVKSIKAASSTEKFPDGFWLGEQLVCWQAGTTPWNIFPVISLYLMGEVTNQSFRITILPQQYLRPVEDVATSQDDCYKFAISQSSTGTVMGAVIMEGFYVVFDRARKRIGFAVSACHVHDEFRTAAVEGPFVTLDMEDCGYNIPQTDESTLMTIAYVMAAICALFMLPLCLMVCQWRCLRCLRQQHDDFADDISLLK
Description: In this assay, BACE1-catalyzed proteolysis of a synthetic oligopeptide substituted with a fluorescent dye and a quencher leads to an increase in fluorescence by breaking the tether between the dye and the quencher. […] The assay was carried out according to the supplied manual with small modifications.
The assay was carried out according to the supplied manual with modifications. Briefly, a mixture of 10 μL of assay buffer (50 mM sodium acetate, pH 4.5), 10 μL of BACE1 (1.0 U/mL), 10 μL of the substrate (750 nM Rh-[…]-Quencher in 50 mM sodium acetate, pH 4.5), and 10 μL of sample dissolved in 50 mM ammonium bicarbonate buffer (pH 7.8) was incubated for 60 min at room temperature in the dark. The mixture was irradiated at 545 nm and the emission intensity at 590 nm was recorded. The inhibition ratio was obtained by the following equation: Inhibition (%) = [1 − {(S−S0)/(C−C0)}] × 100 where C was the fluorescence of the control (enzyme, buffer, and substrate) after 60 min of incubation, C0 was the fluorescence of control at zero time, S was the fluorescence of the tested samples (enzyme, sample solution, and substrate) after incubation, and S0 was the fluorescence of the tested samples at zero time. To allow for the quenching effect of the samples, the sample solution was added to the reaction mixture C, and any reduction in fluorescence by the sample was then investigated. All data are the mean of three experiments.

[2] = biological target: T2, human erythrocyte AChE (Homo sapiens, UniProt P22303); assay: Cholinesterase inhibitory activity (Ellman), AChE; details: for IC50: read-out: IC50 erythrocytes AChE; for Ki: read-out: Ki (inhibition constant) AChE
T2 construct: 2 μL of human erythrocyte AChE (0.25 U/mL); from tissue; host or cells: human erythrocytes
T2 sequence (P22303 other isoform, or with tags, fused parts or gaps): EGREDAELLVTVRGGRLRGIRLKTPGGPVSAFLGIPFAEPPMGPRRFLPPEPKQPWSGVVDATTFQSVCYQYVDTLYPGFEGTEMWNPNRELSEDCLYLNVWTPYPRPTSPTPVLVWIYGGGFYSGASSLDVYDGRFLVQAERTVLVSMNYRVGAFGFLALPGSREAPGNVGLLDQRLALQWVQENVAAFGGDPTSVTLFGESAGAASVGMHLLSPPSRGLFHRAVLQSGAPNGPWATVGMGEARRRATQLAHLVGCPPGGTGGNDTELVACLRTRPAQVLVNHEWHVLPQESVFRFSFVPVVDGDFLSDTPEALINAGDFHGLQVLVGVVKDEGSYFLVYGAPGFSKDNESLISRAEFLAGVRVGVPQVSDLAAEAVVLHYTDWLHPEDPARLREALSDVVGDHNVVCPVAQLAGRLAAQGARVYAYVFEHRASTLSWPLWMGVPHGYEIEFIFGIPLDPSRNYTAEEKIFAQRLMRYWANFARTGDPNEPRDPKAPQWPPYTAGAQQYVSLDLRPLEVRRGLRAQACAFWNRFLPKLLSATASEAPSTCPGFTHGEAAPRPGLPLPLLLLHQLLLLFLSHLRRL
Description: (§1) Cholinesterase was assayed according to standard procedures by following the hydrolysis of acetylthiocholine iodide (AtCh) or butyrylthiocholine iodide (BtCh) by monitoring formation of 5-thio-2-nitrobenzoate from 5-5'-dithiobis(2-nitrobenzoic acid) spectrometrically at 412 nm. The reaction mixture contained 100 mM sodium phosphate buffer (pH 8.0), 20 μL of test sample solution and either 2 μL of human erythrocyte AChE (0.25 U/mL) or 2 μL of equine serum BChE (0.05 U/mL) solution, which were mixed and incubated for 10 min at room temperature. Assays were then initiated with the addition of 30 μL 5-5'-dithiobis(2-nitrobenzoic acid) (3.3 mM) and, respectively, 20 μL of AtCh (1 mM), and 7 μL of BtCh (1 mM). All assays were performed in triplicate. […] Kinetic parameters were determined using the Lineweaver-Burk double-reciprocal-plot method at increasing concentration of substrates and inhibitors.

[3] = biological target: T3, equine serum BChE (Equus caballus, UniProt P81908); assay: Cholinesterase inhibitory activity (Ellman), BChE; details: for Ki: read-out: Ki (inhibition constant) BChE
T3 construct: 2 μL of equine serum BChE (0.05 U/mL) solution; from tissue; host or cells: equine serum
T3 sequence (P81908 whole entry): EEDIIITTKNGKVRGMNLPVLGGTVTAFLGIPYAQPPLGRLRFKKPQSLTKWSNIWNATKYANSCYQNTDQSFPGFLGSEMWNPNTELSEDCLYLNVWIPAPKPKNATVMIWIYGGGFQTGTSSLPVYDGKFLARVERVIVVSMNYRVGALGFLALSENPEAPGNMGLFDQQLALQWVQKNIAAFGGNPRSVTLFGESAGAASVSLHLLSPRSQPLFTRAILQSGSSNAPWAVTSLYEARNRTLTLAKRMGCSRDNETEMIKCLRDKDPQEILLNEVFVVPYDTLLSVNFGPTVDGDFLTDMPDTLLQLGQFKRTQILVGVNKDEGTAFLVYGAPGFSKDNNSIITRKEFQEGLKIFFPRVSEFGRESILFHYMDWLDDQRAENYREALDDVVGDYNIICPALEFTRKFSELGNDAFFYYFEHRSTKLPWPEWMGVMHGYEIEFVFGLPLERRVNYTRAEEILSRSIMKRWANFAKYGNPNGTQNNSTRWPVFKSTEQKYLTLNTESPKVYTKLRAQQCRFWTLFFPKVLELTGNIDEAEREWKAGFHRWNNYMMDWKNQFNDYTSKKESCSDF
Description: as §1

[4] = biological target: T1, BACE1; assay: Slow and time-dependent inhibitory activity on BACE1 (progress curves); details: preincubation 0-60 min, progress curves 3,600 s
Description: To further investigate the inhibition mechanism, time dependence of BACE1inhibition by compound 5a was subsequently probed. The enzyme was preincubated with […] (between 0 and 60 min) and the residual enzyme activity was measured by calculating the initial velocity (Vi) of the hydrolysis (Figure 3B). Progress curves were continued to be run up for 3,600 s.
Slow and time-dependent assays and progress curves were carried out using 1 U/mL unit BACE1, and 10 μL substrate in 50 mM ammonium bicarbonate pH 7.8 at 37 °C. Enzyme activities were measured continuously for 3,600 s spectrophotometrically. To determine the kinetic parameters associated with time dependent inhibition of BACE1, progress curves for 3,600 s were obtained at one inhibitor concentration using fixed substrate concentrations. The data were analyzed using the nonlinear regression program [Sigma Plot (SPCC Inc., Chicago, IL, USA)].

[5] = BACE1, Dixon plot, read-out: Ki (inhibition constant)
[6] = BACE1 activity, mean of three experiments ± SD

| SMILES | Ki [1, 5] | IC50 [1, 6] | IC50 [2] | Ki [2] | IC50 [3] | Ki [3] | further results |
| --- | --- | --- | --- | --- | --- | --- | --- |
| Nc1ccc(C(=O)/C=C/c2ccc(O)cc2)cc1 [Compound 1, 4′-Amino-4-hydroxychalcone] | 43.8 µM | 48.2 ± 1.2 µM | – | – | – | – | – |
| Nc1ccc(C(=O)/C=C/c2ccc(O)c(O)c2)cc1 [Compound 2, 4′-Amino-3,4-dihydroxychalcone] | 10.5 µM | 17.7 ± 0.8 µM | – | – | – | – | – |
| CC(=O)Nc1ccc(C(=O)/C=C/c2ccc(O)cc2)cc1 [Compound 3, 4′-Acetamido-4-hydroxychalcone] | – | > 200 µM | – | – | – | – | BACE1 inhibition ([1]; at concentrations as high as 200 μM): inactive |
| Cc1ccc(S(=O)(=O)Nc2ccc(C(=O)/C=C/c3ccc(O)cc3)cc2)cc1 [Compound 4a, 4'-(4-Toluenesulfonamide)-4-hydroxychalcone] | 0.56 µM | 1.44 ± 0.2 µM | 56.1 µM | 40.4 µM | 47.4 µM | 25.3 µM | Inhibition type ([1]; BACE1): mixed type |
| Cc1ccc(S(=O)(=O)Nc2ccc(C(=O)/C=C/c3ccccc3)cc2)cc1 [Compound 4b, 4′-(4-Toluenesulfonamido)-chalcone] | – | 169 ± 2.4 µM | – | – | – | – | – |
| O=C(/C=C/c1ccc(O)cc1)c1ccc(NS(=O)(=O)c2ccccc2)cc1 [Compound 4c, 4′-(Benzenesulfonamide)-4-hydroxychalcone] | 5.83 µM | 6.28 ± 0.7 µM | 83.3 µM | 80.3 µM | 75 µM | 72.2 µM | – |
| O=C(/C=C/c1ccc(O)cc1)c1ccc(NS(=O)(=O)c2ccc(O)cc2)cc1 [Compound 4d, 4′-(4-Hydroxybenzenesulfonamide)-4-hydroxychalcone] | 1.49 µM | 2.88 ± 0.5 µM | – | – | – | – | – |
| COc1ccc(S(=O)(=O)Nc2ccc(C(=O)/C=C/c3ccc(O)cc3)cc2)cc1 [Compound 4e, 4′-(4-Methoxybenzenesulfonamido)-4-hydroxychalcone] | 75.2 µM | 79.3 ± 2.3 µM | – | – | – | – | – |
| Nc1ccc(S(=O)(=O)Nc2ccc(C(=O)/C=C/c3ccc(O)cc3)cc2)cc1 [Compound 4f, 4′-(4-Aminobenzenesulfonamide)-4-hydroxychalcone] | 4.19 µM | 5.58 ± 1.4 µM | 95.8 µM | 61.5 µM | 34.3 µM | 19 µM | – |
| O=C(/C=C/c1ccc(O)cc1)c1ccc(NS(=O)(=O)c2ccc([N+](=O)[O-])cc2)cc1 [Compound 4g, 4′-(4-Nitrobenzenesulfonamide)-4-hydroxychalcone] | 94.8 µM | 107 ± 2.7 µM | – | – | – | – | – |
| O=C(/C=C/c1ccc(O)cc1)c1ccc(NS(=O)(=O)c2ccc(F)cc2)cc1 [Compound 4h, 4′-(4-Fluorobenzenesulfonamide)-4-hydroxychalcone] | – | 120 ± 3.2 µM | – | – | – | – | – |
| Cc1ccc(S(=O)(=O)Nc2ccc(C(=O)/C=C/c3ccc(O)c(O)c3)cc2)cc1 [Compound 5a, 4'-(4-Toluenesulfonamide)-3,4-dihydroxychalcone] | – | 0.21 ± 0.02 µM | 75.9 µM | 55.8 µM | 19.5 µM | 9.8 µM | Time dependence of inhibition [4]: slow binding inhibitor; also recorded: time-dependent; Inhibition type ([1]; BACE1): mixed inhibitor; Ki ([1]; BACE1, read-out: Ki): 0.07 µM; Reversibility of inhibition ([1]; BACE1, residual activity versus enzyme concentration): reversible inhibitor |
| O=C(/C=C/c1ccc(O)c(O)c1)c1ccc(NS(=O)(=O)c2ccccc2)cc1 [Compound 5b, 4′-(Benzenesulfonamide)-3,4-dihydroxychalcone] | 3.78 µM | 4.59 ± 1.5 µM | 75.4 µM | 57.2 µM | 79 µM | 63.5 µM | – |
| O=C(/C=C/c1ccc(O)c(O)c1)c1ccc(NS(=O)(=O)c2ccc(O)cc2)cc1 [Compound 5c, 4′-(4-Hydroxybenzenesulfonamide)-3,4-hydroxychalcone] | 0.56 µM | 0.62 ± 0.03 µM | 57.4 µM | 47.6 µM | 24.7 µM | 26.6 µM | – |
| Nc1ccc(S(=O)(=O)Nc2ccc(C(=O)/C=C/c3ccc(O)c(O)c3)cc2)cc1 [Compound 5d, 4′-(4-Aminobenzenesulfonamide)-3,4-dihydroxychalcone] | 0.69 µM | 0.69 ± 0.04 µM | – | – | – | – | – |
| O=C(/C=C/c1ccc(O)c(O)c1)c1ccc(NS(=O)(=O)c2ccc([N+](=O)[O-])cc2)cc1 [Compound 5e, 4′-(4-Nitrobenzenesulfonamide)-3,4-dihydroxychalcone] | 92.4 µM | 101 ± 2.4 µM | – | – | – | – | – |
| O=C(/C=C/c1ccc(O)c(O)c1)c1ccc(NS(=O)(=O)c2ccc(F)cc2)cc1 [Compound 5f, 4′-(4-Fluorobenzenesulfonamide)-3,4-dihydroxychalcone] | 10.8 µM | 8.95 ± 1 µM | – | – | – | – | – |
| Cc1ccc(S(=O)(=O)Nc2ccc(C(=O)/C=C/c3ccc(O)cc3O)cc2)cc1 [Compound 6, 4'-(4-Toluenesulfonamide)-2,4-dihydroxychalcone] | 1.89 µM | 3.6 ± 0.3 µM | – | – | – | – | – |
| O=c1c(O)c(-c2ccc(O)cc2O)oc2cc(O)cc(O)c12 [Morin, reference compound] | – | – | – | – | – | – | IC50 ([1]; BACE1): 12.3 µM |
